This note sets out measurements from US8580812B2, “Heteroaryl amide analogues as P2X7 antagonists” (H. Lundbeck A/S, priority 2007, dated 2013).

Molecules are shown by their SMILES.

The assay has as its target T1, P2X7 (Homo sapiens, UniProt Q99572).
T1 construct: host or cells: SH-SY5Y
T1 sequence (Q99572 1-595): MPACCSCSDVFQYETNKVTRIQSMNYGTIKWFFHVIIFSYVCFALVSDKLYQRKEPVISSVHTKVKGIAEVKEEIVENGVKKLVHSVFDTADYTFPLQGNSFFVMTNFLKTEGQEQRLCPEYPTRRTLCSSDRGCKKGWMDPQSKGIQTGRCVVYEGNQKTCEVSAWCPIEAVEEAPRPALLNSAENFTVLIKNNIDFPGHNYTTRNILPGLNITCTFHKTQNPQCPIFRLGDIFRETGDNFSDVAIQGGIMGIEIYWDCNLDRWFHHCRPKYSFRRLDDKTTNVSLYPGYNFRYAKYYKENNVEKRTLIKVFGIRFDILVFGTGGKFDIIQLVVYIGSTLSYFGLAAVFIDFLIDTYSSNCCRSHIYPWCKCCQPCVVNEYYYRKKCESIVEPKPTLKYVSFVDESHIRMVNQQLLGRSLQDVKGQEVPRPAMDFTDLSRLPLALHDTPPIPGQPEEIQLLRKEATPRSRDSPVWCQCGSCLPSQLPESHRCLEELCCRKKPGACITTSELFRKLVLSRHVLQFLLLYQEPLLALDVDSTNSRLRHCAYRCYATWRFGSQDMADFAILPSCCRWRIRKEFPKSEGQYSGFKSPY
The assay can be described thus: High Throughput P2X7 Calcium Mobilization Assay (Example 4A), antagonist activity. The class given is cell-based. Conditions: SH-SY5Y cells, 50% decrease in fluorescence response of cells exposed to 80 μM BzATP. In a few lines:
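SH-SY5Y cells loaded with Fluo-4 AM were preincubated 1 h at room temperature with compound (typically 1–2500 nM) in sucrose/HEPES buffer, pH 7.4, then challenged with 80 μM BzATP (final, about EC50). Peak fluorescence over 2 min gave percent inhibition relative to agonist-only wells, and IC50 came from a Hill-equation fit.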
On the technique in general: A change in cytosolic calcium serves as a functional read-out for many receptors and channels.
Usually IC50 stands for the midpoint of a concentration-inhibition curve. Take `COCCN(C)C(=O)c1cc2c(C(=O)NCC34CC5CC(CC(C5)C3)C4)cccn2n1` [Compound 18, 4-N-(adamantan-1-ylmethyl)-2-N-(2-methoxyethyl)-2-N-methylpyrazolo[1,5-a]pyridine-2,4-dicarboxamide]: the half-inhibitory concentration (IC50) was at most 2000 nM.

Take `CN(CCF)C(=O)c1cc2c(C(=O)NCC3(c4ccc(Cl)cc4)CCCCC3)cccn2n1` [Compound 85, 4-N-{[1-(4-chlorophenyl)cyclohex-yl]methyl}-2-N-(2-fluoroethyl)-2-N-methylpyrazolo[1,5-a]pyridine-2,4-dicarboxamide]: the concentration for half-maximal inhibition (IC50) was at most 2000 nM.

In the case of `CCOC(=O)CNC(=O)c1cc2c(C(=O)NCC34CC5CC(CC(C5)C3)C4)cccn2n1` [Compound 41, ethyl N-({4-[(adamantan-1-ylmethyl)carbamoyl]pyrazolo[1,5-a]pyridin-2-yl}carbonyl)glycinate], the 50% inhibitory concentration (IC50) is at most 2000 nM.

As to `CN(Cc1cncn1C)C(=O)c1cc2c(C(=O)NCC34CC5CC(CC(C5)C3)C4)cccn2n1` [Compound 26, 4-N-(adamantan-1-ylmethyl)-2-N-methyl-2-N-[(1-methyl-1H-imidazol-5-yl)methyl]pyrazolo[1,5-a]pyridine-2,4-dicarboxamide], the concentration for half-maximal inhibition (IC50) is at most 2000 nM.

For `O=C(NCc1ccccn1)c1cc2c(C(=O)NCC34CC5CC(CC(C5)C3)C4)cccn2n1` [Compound 51, 4-N-(adamantan-1-ylmethyl)-2-N-(pyridin-2-ylmethyl)pyrazolo[1,5-a]pyridine-2,4-dicarboxamide], the half-maximal inhibitory concentration (IC50) was at most 2000 nM.

Take `O=C(NCC12CC3CC(CC(C3)C1)C2)c1cccn2nc(CC(=O)N3CCOCC3)cc12` [Compound 25, N-(adamantan-1-ylmethyl)-2-(2-morpholin-4-yl-2-oxoethyl)pyrazolo[1,5-a]pyridine-4-carboxamide]: the 50% inhibitory concentration (IC50) was at most 2000 nM.

Turning to `CCOC(=O)CN(C)C(=O)c1cc2c(C(=O)NCC34CC5CC(CC(C5)C3)C4)cccn2n1` [Compound 23, ethyl N-({4-[(adamantan-1-ylmethyl)carbamoyl]pyrazolo[1,5-a]pyridin-2-yl}carbonyl)-N-methylglycinate], the half-maximal inhibitory concentration (IC50) was at most 2000 nM.

Take `O=C(Cc1cc2c(C(=O)NCC34CC5CC(CC(C5)C3)C4)cccn2n1)NCC(F)(F)F` [Compound 61, N-(adamantan-1-ylmethyl)-2-{2-oxo-2-[(2,2,2-trifluoroethyl)amino]ethyl}pyrazolo[1,5-a]pyridine-4-carboxamide]: the IC50 is at most 2000 nM.

Turning to `N#Cc1ccc(C(=O)c2ccc3c(C(=O)NCC45CC6CC(CC(C6)C4)C5)cccn23)cc1` [Compound 109, N-(adamantan-1-ylmethyl)-3-(4-cyanobenzoyl)indolizine-8-carboxamide], the concentration for half-maximal inhibition (IC50) was at most 2000 nM.

As for `CC(C)CC(CNC(=O)c1cccn2nc(C(=O)N3CCOCC3)cc12)c1ccc(Cl)cc1` (stereo not drawn) [Compound 91, N-[2-(4-chlorophenyl)-4-methylpentyl]-2-(morpholin-4-ylcarbonyl)pyrazolo [1,5-a]pyridine-4-carboxamide], the concentration for half-maximal inhibition (IC50) is at most 2000 nM.

On to `CC(CC(=O)O)c1cc2c(C(=O)NCC34CC5CC(CC(C5)C3)C4)cccn2n1` (stereo not drawn) [Compound 105, 3-{4-[(adamantan-1-ylmethyl)carbamoyl]pyrazolo[1,5-a]pyridin-2-yl}butanoic acid], for which the 50% inhibitory concentration (IC50) is at most 2000 nM.

Regarding `CN(Cc1cnccn1)C(=O)c1cc2c(C(=O)NCC34CC5CC(CC(C5)C3)C4)cccn2n1` [Compound 48, 4-N-(adamantan-1-ylmethyl)-2-N-methyl-2-N-(pyrazin-2-ylmethyl)pyrazolo[1,5-a]pyridine-2,4-dicarboxamide], the half-maximal inhibitory concentration (IC50) is at most 2000 nM.

Consider `CN(C(=O)c1cc2c(C(=O)NCC34CC5CC(CC(C5)C3)C4)cccn2n1)c1ccccn1` [Compound 19, 4-N-(adamantan-1-ylmethyl)-2-N-methyl-2-N-pyridin-2-ylpyrazolo[1,5-a]pyridine-2,4-dicarboxamide], for which the IC50 was at most 2000 nM.

Consider `CN(Cc1cc2c(C(=O)NCC34CC5CC(CC(C5)C3)C4)cccn2n1)Cc1ccccc1F` [Compound 68, N-(adamantan-1-ylmethyl)-2-{[(2-fluorobenzyl)(methyl)amino]methyl}pyrazolo [1,5-a]pyridine-4-carboxamide], for which the half-maximal inhibitory concentration (IC50) is at most 2000 nM.

As to `COCCCNC(=O)c1cc2c(C(=O)NCC34CC5CC(CC(C5)C3)C4)cccn2n1` [Compound 38, 4-N-(adamantan-1-ylmethyl)-2-N-(3-methoxypropyl)pyrazolo [1,5-a]pyridine-2,4-dicarboxamide], the 50% inhibitory concentration (IC50) is at most 2000 nM.

As for `CC(C)CC(CNC(=O)c1cccn2nc(C(=O)N3C[C@@H](C)O[C@@H](C)C3)cc12)c1ccc(C(F)(F)F)cc1` (single isomer, unassigned) [Compound 100], the IC50 is at most 2000 nM.

Consider `CCN[C@@H]1CCN(C(=O)c2cc3c(C(=O)NCC45CC6CC(CC(C6)C4)C5)cccn3n2)C1` [Compound 47, N-(adamantan-1-ylmethyl)-2-{[(3R)-3-(ethylamino)pyrrolidin-1-yl]carbonyl}pyrazolo [1,5-a]pyridine-4-carboxamide], for which the IC50 was at most 2000 nM.

Regarding `CN(Cc1ccccc1F)C(=O)c1cc2c(C(=O)NCC34CC5CC(CC(C5)C3)C4)cccn2n1` [Compound 65, 4-N-(adamantan-1-ylmethyl)-2-N-(2-fluorobenzyl)-2-N-methylpyrazolo[1,5-a]pyridine-2,4-dicarboxamide], the IC50 is at most 2000 nM.

In the case of `CN(Cc1cccnc1)Cc1cc2c(C(=O)NCC34CC5CC(CC(C5)C3)C4)cccn2n1` [Compound 54, N-(adamantan-1-ylmethyl)-2-{[methyl(pyridin-3-ylmethyl)amino]methyl} pyrazolo[1,5-a]pyridine-4-carboxamide], the half-inhibitory concentration (IC50) is at most 2000 nM.

Turning to `O=C(NCC12CC3CC(CC(C3)C1)C2)c1cccn2nc(C(=O)N3CCOCC3)cc12` [Compound 22, N-(adamantan-1-ylmethyl)-2-(morpholin-4-ylcarbonyl)pyrazolo [1,5-a]pyridine-4-carboxamide], the 50% inhibitory concentration (IC50) is at most 2000 nM.

For the compound `CN(Cc1ccccn1)Cc1cc2c(C(=O)NCC34CC5CC(CC(C5)C3)C4)cccn2n1` [Compound 53, N-(adamantan-1-ylmethyl)-2-{[methyl(pyridin-2-ylmethyl)amino]methyl} pyrazolo[1,5-a]pyridine-4-carboxamide], the 50% inhibitory concentration (IC50) is at most 2000 nM.

Turning to `O=C(NCC(F)(F)F)c1cc2c(C(=O)NCC34CC5CC(CC(C5)C3)C4)cccn2n1` [Compound 64, 4-N-(adamantan-1-ylmethyl)-2-N-(2,2,2-trifluoroethyl)pyrazolo [1,5-a]pyridine-2,4-dicarboxamide], the IC50 was at most 2000 nM.

Consider `O=C(O)c1ccc(-c2cc3c(C(=O)NCC45CC6CC(CC(C6)C4)C5)cccn3c2)cc1` [Compound 108, 4-{8-[(adamantan-1-ylmethyl)carbamoyl]indolizin-2-yl}benzoic acid], for which the half-maximal inhibitory concentration (IC50) is at most 2000 nM.

Regarding `O=C1CN(C(=O)c2cc3c(C(=O)NCC45CC6CC(CC(C6)C4)C5)cccn3n2)CCN1` [Compound 32, N-(adamantan-1-ylmethyl)-2-[(3-oxopiperazin-1-yl)carbonyl]pyrazolo [1,5-a]pyridine-4-carboxamide], the IC50 is at most 2000 nM.

As to `O=C(NCC12CC3CC(CC(C3)C1)C2)c1cccn2nc(CCC3=NCCN3)cc12` [Compound 95, N-(adamantan-1-ylmethyl)-2-[2-(4,5-dihydro-1H-imidazol-2-yl)ethyl]pyrazolo[1,5-a]pyridine-4-carboxamide], the IC50 is at most 2000 nM.

With `O=C(NCC12CC3CC(CC(C3)C1)C2)c1cccn2nc(CN3CCn4cncc4C3)cc12` [Compound 52, N-(adamantan-1-ylmethyl)-2-(5,6-dihydroimidazo[1,5-a]pyrazin-7(8H)-ylmethyl)pyrazolo[1,5-a]pyridine-4-carboxamide], the IC50 was at most 2000 nM.

With `CC(C)CC(CNC(=O)c1cccn2nc(C(=O)N3CC[C@@H](N)C3)cc12)c1cccnc1` (stereo partly drawn) [Compound 56, 2-{[(3R)-3-aminopyrrolidin-1-yl]carbonyl}-N-(4-methyl-2-pyridin-3-ylpentyl)pyrazolo[1,5-a]pyridine-4-carboxamide], the IC50 is at most 2000 nM.

Regarding `O=C(O)CC(c1ccccc1)c1cc2c(C(=O)NCC34CC5CC(CC(C5)C3)C4)cccn2n1` (stereo not drawn) [Compound 106, 3-{4-[(adamantan-1-ylmethyl)carbamoyl]pyrazolo[1,5-a]pyridin-2-yl}-3-phenylpropanoic acid], the 50% inhibitory concentration (IC50) is at most 2000 nM.

Regarding `CN(Cc1ccc(F)cc1)C(=O)c1cc2c(C(=O)NCC34CC5CC(CC(C5)C3)C4)cccn2n1` [Compound 67, 4-N-(adamantan-1-ylmethyl)-2-N-(4-fluorobenzyl)-2-N-methylpyrazolo[1,5-a]pyridine-2,4-dicarboxamide], the 50% inhibitory concentration (IC50) is at most 2000 nM.

Regarding `CN(CCF)C(=O)Cc1cc2c(C(=O)NCC34CC5CC(CC(C5)C3)C4)cccn2n1` [Compound 77, N-(adamantan-1-ylmethyl)-2-{2-[(2-fluoroethyl)(methyl)amino]-2-oxoethyl}pyrazolo[1,5-a]pyridine-4-carboxamide], the IC50 is at most 2000 nM.
